Experimental data from publication PMC10424242, “Macrocyclic Peptidomimetic Plasmepsin X Inhibitors with Potent In Vitro and In Vivo Antimalarial Activity” (Journal of Medicinal Chemistry, 2023).
Read-outs that look alike come from different tables or passages of the source.

Assays:
[1] = tested on: maturation of the PMX substrate SUB1 (p54 to p47); test: Western blot of SUB1 maturation in treated schizonts; format: cell-based, P. falciparum; details: 20 nM, 44 h
Experimental: This phenotype is characteristic of the inhibition of PMX.
(§1) Synchronous parasite cultures were cultured from ring to schizont stage (∼44 h) in the presence of DMSO alone (0.04% v/v; control) or macrocycle compounds (20 nM final concentration). Schizonts were isolated by Percoll enrichment (still in the presence of the test compound), then either immediately frozen or further incubated in the absence of the drug but in the presence of C2 (1 μM) for 1 h at 37°C in the absence of added RBCs or for 3.5 h in the presence of added RBCs. The schizonts without added RBCs were then frozen too, and all schizont samples were then thawed into CHAPS–urea extraction buffer, subjected to sodium dodecyl sulfate-polyacrylamide gel electrophoresis (SDS-PAGE), and analyzed by Western blot, probing with antibodies against SUB1 or RAP1. For schizonts cultured in the presence of added RBCs, ring formation was assessed in two ways: cultures were examined microscopically by Giemsa stain of thin films and were also fixed with glutaraldehyde and processed for quantification of ring formation by flow cytometry as described above.

[2] = Plasma protein binding (rapid equilibrium dialysis); format: in vitro ADME; details: pH 7.4, mouse plasma, 2 h at 37 °C
Experimental: Plasma protein binding was performed with rapid equilibrium dialysis (RED) device inserts containing a dialysis membrane with a molecular weight cut-off of 8000 Daltons. Inserts were placed in the single-use RED plate without prior preparation.
The test compound at a concentration of 5 μM was added to mouse plasma and dialyzed against phosphate-buffered saline (PBS, pH 7.4) for 2 h at 37 °C. Propranolol hydrochloride was used as a positive control (high PPB), and fluconazole was used as negative control (low PPB). After dialysis, the drug concentration in the buffer and plasma compartments was quantified by liquid chromatography and tandem mass spectrometry (LC-MS/MS) analysis.

[3] = tested on: maturation of RAP1, substrate of PMIX; test: Western blot of RAP1 maturation in treated schizonts; format: cell-based, P. falciparum; details: 20 nM, 44 h
Source text: Figure 4 Macrocycle PMX inhibitors have no effect on intraerythrocytic parasite maturation but prevent egress and maturation of SUB1. […] Scale bar, 20 μm. (B) Simplified schematic of proteolytic maturation of the egress effector SUB1. Conversion of the precursor form to p54 is through autocatalytic removal[32] of the prodomain region (PD), whereas conversion of p54 to p47 is mediated by PMX.[15],[16],[33] (C) Left, Western blot analysis of P. falciparum 3D7 schizonts allowed to mature in the presence of the indicated macrocycle compounds (20 nM), showing defective SUB1 maturation in parasites treated with the indicated macrocycle compounds. Right, Western blot of the same extracts probed with a monoclonal antibody (mAb) specific to the rhoptry protein RAP1, which is a substrate for cleavage by the related P. falciparum protease PMIX. The compounds had no discernible effect on the maturation of RAP1. The results shown are typical of 3 independent experiments.
as §1

[4] = biological target: PMIV (Plasmodium falciparum, UniProt Q8IM16); test: FRET-based PMIV inhibition assay; format: biochemical, P. falciparum
Chain of PMIV (Q8IM16 122-449): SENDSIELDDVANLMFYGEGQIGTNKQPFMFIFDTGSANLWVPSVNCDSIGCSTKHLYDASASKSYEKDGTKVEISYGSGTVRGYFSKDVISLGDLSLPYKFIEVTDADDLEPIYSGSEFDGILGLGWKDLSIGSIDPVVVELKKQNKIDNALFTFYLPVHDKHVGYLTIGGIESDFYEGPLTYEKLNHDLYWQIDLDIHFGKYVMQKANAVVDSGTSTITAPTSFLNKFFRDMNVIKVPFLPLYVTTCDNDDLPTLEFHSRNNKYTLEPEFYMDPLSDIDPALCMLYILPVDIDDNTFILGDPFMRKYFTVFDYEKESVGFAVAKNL
Experimental: (§2) A fluorescence resonance energy transfer (FRET)-based assay was performed to assess the ability of the compounds to inhibit PMIV, CatD, and BACE1. Serial dilutions of test compounds were dispensed in a white 96-well plate. […] The mixture was incubated for 20 min at 37 °C. […] IC50 values were calculated with GraphPad Prism 8.0 using the nonlinear regression, variable slope (four parameters). Compounds were tested in triplicate.

[5] = tested on: P. falciparum 3D7 parasites; test: Microscopy of synchronized P. falciparum cultures treated from ring stage (development and egress); format: cell-based; details: 20 nM
Experimental: Asexual blood-stage forms of P. falciparum strains 3D7 and Dd2 were maintained at 37 °C in an atmosphere of 1% O2, 5% CO2, and 94% N2 in human RBCs in RPMI 1640 medium containing AlbuMAX II (Thermo Fisher Scientific) and supplemented with 2 mM L-glutamine. The synchronization of parasite cultures was as described previously.[39] Briefly, this involved isolating mature schizont forms by centrifugation over cushions of 70% (v/v) isotonic Percoll (GE Healthcare, Life Sciences) and then allowing the parasites to undergo rupture in the presence of fresh RBCs for 2 h under gentle shaking conditions (100 rpm). Residual schizonts were then removed through a second Percoll separation, followed by treatment with 5% (w/v) sorbitol to finally obtain a highly synchronized preparation of newly invaded ring-stage parasites.
Growth stage progression and parasite morphology were also monitored by microscopic examination at selected time points using Giemsa-stained thin blood films.

[6] = Liver microsomal metabolic stability; format: in vitro ADME, mouse; details: pooled liver microsomes, pH 7.4, mouse liver microsomes, 5 μM; for microsomal CLint at 1 h, 5 μM: read-out: microsomal stability CL(int)
Experimental: Microsomal stability assays are performed as described elsewhere.[41] Test compounds and pooled mouse liver microsomes are incubated in potassium phosphate buffer in the presence of the cofactor NADPH at 37 °C. Reaction mixtures (700 μL) contain a final concentration of 5 μM test compound, 0.05% DMSO, 0.5 mg/mL microsomes, and ∼0.7–0.9 mM NADPH in 100 mM potassium phosphate buffer at pH 7.4. Reactions are terminated by the addition of 100 μL of the reaction mixture to 900 μL of acetonitrile after 0, 5, 15, 30, 45, and 60 min of incubation. Samples were centrifuged, and the resultant supernatant was analyzed by ultra-performance liquid chromatography–tandem mass spectrometry (UPLC-MS/MS). The amount of remaining compound is calculated and compared to the initial amount of test compound (zero time point). Verapamil is used as a positive control, and samples prepared without cofactor NADPH are used as a negative control (0 and 60 min). The in vitro metabolic stability parameters (half-life value (t1/2) and intrinsic clearance value (Clint)) are calculated from the slope of the Ln of concentration remaining vs the time curve.

[7] = biological target: BACE1 (Homo sapiens, UniProt P56817); test: FRET-based BACE1 inhibition assay (selectivity counter screen); format: biochemical
Chain of BACE1 (P56817 46-501): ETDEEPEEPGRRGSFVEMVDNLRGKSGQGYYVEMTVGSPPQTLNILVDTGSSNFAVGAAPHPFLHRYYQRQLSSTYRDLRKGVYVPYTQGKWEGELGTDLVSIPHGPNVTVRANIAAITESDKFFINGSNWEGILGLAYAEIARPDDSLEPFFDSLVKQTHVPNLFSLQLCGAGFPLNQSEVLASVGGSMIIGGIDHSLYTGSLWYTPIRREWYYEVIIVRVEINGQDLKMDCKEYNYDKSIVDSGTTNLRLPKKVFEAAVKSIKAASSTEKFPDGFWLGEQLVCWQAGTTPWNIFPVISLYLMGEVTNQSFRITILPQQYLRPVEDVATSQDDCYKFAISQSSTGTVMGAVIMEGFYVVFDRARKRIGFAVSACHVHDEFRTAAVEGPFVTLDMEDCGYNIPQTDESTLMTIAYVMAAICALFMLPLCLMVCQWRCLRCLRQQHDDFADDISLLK
Experimental: as §2

[8] = tested on: P. falciparum schizonts; test: Washout assay, schizont rupture and new ring formation; format: cell-based; details: 20 nM ∼44 h, […] with added RBCs
Experimental: (§3) The schizont cultures lacking added RBCs were supplemented with compound C2, which blocks the discharge of exonemes, the parasite secretory organelles in which PMX and SUB1 are stored before egress. The schizonts without added RBCs were sampled for Western blot analysis, while the schizont cultures containing RBCs were examined by microscopy and flow cytometry after a further 4 h in culture to quantify schizont rupture and new ring formation.
as §1

[9] = biological target: cathepsin D (CatD) (Homo sapiens, UniProt P07339); test: FRET-based CatD inhibition assay (selectivity counter screen); format: biochemical
Chain of cathepsin D (CatD) (P07339 65-412): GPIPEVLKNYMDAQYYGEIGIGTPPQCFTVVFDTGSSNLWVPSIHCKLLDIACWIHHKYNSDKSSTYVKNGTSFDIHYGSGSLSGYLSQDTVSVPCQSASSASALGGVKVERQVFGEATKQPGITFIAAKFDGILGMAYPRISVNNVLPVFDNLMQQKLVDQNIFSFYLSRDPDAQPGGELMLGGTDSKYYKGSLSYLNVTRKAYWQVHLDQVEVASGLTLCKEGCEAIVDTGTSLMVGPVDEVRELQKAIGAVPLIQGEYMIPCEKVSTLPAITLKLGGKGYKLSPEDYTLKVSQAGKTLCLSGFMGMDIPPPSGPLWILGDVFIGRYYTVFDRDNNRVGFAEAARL
Experimental: as §2

[10] = biological target: recombinant P. falciparum PMX (Plasmodium falciparum, UniProt Q8IAS0); test: Recombinant P. falciparum PMX inhibition assay (fluorogenic substrate Rh2N); format: biochemical
Chain of recombinant P. falciparum PMX (Q8IAS0 222-573): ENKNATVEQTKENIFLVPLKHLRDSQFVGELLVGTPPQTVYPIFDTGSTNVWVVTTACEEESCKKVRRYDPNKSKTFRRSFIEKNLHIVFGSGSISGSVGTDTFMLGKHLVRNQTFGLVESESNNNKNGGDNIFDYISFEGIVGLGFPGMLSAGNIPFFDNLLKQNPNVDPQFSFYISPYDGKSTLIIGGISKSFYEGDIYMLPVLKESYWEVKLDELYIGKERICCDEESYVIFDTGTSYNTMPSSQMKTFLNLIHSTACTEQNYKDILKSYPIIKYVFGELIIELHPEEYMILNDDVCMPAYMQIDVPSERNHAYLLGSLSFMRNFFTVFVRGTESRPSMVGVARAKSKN
Experimental: The fluorescence of this peptide is quenched by the spatial proximity of the DABCYL/EDANS groups in the uncleaved peptide and is increased upon cleavage at the internal F–I bond. […] Control wells contained no inhibitor, and the plate was blanked against the substrate only in DB. […] All experiments were performed in duplicate.

[11] = tested on: SUB1 p54 to p47 conversion (PMX activity); test: Washout assay, SUB1 maturation by Western blot; format: cell-based, P. falciparum; details: 20 nM ∼44 h, C2 1 μM for 1 h
Experimental: as §3, §1

[12] = recombinant PMX, read-out: PMX, nM (IC50)

| SMILES | maturation of SUB1 (p54 to p47) [1] | fraction unbound at 2 h, 5 µM [2] | maturation of RAP (PMIX substrate) [3] | IC50 ([4]; read-out: PMIV, nM (IC50)) | intraerythrocytic development of ring-stage parasites to schizont stage ([5]; 44 h) | schizont rupture (egress) and appearance of new rings ([5]; 44 h and extended incubation) | half-life at 1 h, 5 μM [6] | microsomal CLint at 1 h, 5 μM [6] | IC50 [7] | new ring formation after washout [8] | IC50 [9] | IC50 [10, 12] | SUB1 p54 to p47 conversion after washout [11] | IC50 ([4]; Table 3, read-out: PMIV, nM (as listed in Table 3)) | IC50 ([10]; Table 3, read-out: PMX, nM (as listed in Table 3)) |
| --- | --- | --- | --- | --- | --- | --- | --- | --- | --- | --- | --- | --- | --- | --- | --- |
| CCCN1CCCCOc2cccc(c2)C[C@@H]([C@H](O)CNC(C)(C)c2cccc(OC)c2)NC(=O)c2cccc(c2)C1=O [7a, (S)-4-((R)-1-Hydroxy-2-((2-(3-methoxyphenyl)propan-2-yl)amino)ethyl)-12-propyl-7-oxa-3,12-diaza-1,6(1,3)-dibenzenacyclotridecaphane-2,13-dione] | clear defect in maturation of the PMX substrate SUB1 | 0.029 | do not affect PMIX activity at these concentrations | 60 ± 3 nM | Development of ring-stage parasites to the multinucleated schizont stage occurred similarly in all cultures | schizont rupture and appearance of new rings did not occur | 8.67 min | 160 µL/min/mg | 380 ± 20 nM | allowed an efficient generation of new rings | 270 ± 20 nM | 4.1 ± 0.3 nM | efficient conversion of the accumulated SUB1 p54 intermediate to the p47 form | – | – |
| CCCN1CCCCc2cccc(c2)C[C@@H]([C@H](O)CNC(C)(C)c2cccc(OC)c2)NC(=O)c2cccc(c2)C1=O [7j, (S)-4-((R)-1-Hydroxy-2-((2-(3-methoxyphenyl)propan-2-yl)amino)ethyl)-11-propyl-3,11-diaza-1,6(1,3)-dibenzenacyclododecaphane-2,12-dione] | clear defect in maturation of the PMX substrate SUB1 | 0.0067 | do not affect PMIX activity at these concentrations | 74 ± 4 nM | – | – | 14.4 min | 96.4 µL/min/mg | 3020 ± 150 nM | allowed an efficient generation of new rings | 1370 ± 70 nM | 3.8 ± 0.69 nM | efficient conversion of the accumulated SUB1 p54 intermediate to the p47 form | 74 ± 4 nM | 3.8 ± 0.69 nM |
